For data set [1], the target named is T1, Lysine-specific histone demethylase 1A (Homo sapiens, UniProt O60341). As to the kind of experiment: Inhibition of LSD1 (unknown origin).
For data set [2], the target named is hERG (KCNH2) (Homo sapiens, UniProt Q12809). Briefly: Inhibition of human ERG at 10 uM relative to control.
In data set [3] the target is T1, Lysine-specific histone demethylase 1A. As to the kind of experiment: Inhibition of LSD1 in human THP1 cells assessed as induction of CD11b expression after 4 days by LIVE/DEAD violet staining based FACS analysis. A general note: Flow cytometry measures light scatter and fluorescence of single cells or particles in a stream.
Data set [4] addresses T2, Amine oxidase [flavin-containing] A (Homo sapiens, UniProt P21397).
T2 sequence (P21397 whole entry): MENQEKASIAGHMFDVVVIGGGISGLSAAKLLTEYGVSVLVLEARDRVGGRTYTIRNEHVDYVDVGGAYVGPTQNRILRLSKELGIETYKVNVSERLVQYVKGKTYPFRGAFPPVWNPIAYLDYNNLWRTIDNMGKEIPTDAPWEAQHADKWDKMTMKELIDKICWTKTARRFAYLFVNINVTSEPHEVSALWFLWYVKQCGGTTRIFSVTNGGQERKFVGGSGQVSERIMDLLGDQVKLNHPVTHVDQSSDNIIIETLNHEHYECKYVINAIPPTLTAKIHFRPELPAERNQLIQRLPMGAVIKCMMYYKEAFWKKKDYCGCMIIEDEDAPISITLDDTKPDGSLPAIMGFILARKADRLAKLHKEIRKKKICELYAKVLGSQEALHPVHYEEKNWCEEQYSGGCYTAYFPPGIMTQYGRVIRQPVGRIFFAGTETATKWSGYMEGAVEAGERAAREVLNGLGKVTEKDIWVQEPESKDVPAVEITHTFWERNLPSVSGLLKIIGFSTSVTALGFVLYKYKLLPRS
As to the kind of experiment: Inhibition of MAOA (unknown origin) at >20 uM.

Data set [5] addresses T3, Amine oxidase [flavin-containing] B (Homo sapiens, UniProt P27338).
T3 sequence (P27338 whole entry): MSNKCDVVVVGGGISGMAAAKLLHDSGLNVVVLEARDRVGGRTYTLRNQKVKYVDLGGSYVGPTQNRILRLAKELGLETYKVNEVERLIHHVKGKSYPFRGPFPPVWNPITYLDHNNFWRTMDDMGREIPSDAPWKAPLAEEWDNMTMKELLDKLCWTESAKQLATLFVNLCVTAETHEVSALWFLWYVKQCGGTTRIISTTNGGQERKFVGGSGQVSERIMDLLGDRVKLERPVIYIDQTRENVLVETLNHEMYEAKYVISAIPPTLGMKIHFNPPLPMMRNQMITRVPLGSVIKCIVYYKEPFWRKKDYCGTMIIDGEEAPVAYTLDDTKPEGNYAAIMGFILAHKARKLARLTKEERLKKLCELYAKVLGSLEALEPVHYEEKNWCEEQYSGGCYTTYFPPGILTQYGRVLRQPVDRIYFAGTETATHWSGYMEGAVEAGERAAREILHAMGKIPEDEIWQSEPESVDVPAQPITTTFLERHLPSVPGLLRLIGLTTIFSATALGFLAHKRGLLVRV
As to the kind of experiment: Inhibition of MAOB (unknown origin) at >20 uM.

Data set [6] is described as follows: AUC (0 to 6 hrs) in CD-1 mouse at 10 mg/kg, po. The class given is ADME, organism-based. The settings on record: in vivo. On the set-up: dose 10 mg/kg, time < 6 hr, route oral.

A value given as a limit tells only on which side of the number the result lay.

Sequence of hERG (KCNH2) (Q12809 whole entry): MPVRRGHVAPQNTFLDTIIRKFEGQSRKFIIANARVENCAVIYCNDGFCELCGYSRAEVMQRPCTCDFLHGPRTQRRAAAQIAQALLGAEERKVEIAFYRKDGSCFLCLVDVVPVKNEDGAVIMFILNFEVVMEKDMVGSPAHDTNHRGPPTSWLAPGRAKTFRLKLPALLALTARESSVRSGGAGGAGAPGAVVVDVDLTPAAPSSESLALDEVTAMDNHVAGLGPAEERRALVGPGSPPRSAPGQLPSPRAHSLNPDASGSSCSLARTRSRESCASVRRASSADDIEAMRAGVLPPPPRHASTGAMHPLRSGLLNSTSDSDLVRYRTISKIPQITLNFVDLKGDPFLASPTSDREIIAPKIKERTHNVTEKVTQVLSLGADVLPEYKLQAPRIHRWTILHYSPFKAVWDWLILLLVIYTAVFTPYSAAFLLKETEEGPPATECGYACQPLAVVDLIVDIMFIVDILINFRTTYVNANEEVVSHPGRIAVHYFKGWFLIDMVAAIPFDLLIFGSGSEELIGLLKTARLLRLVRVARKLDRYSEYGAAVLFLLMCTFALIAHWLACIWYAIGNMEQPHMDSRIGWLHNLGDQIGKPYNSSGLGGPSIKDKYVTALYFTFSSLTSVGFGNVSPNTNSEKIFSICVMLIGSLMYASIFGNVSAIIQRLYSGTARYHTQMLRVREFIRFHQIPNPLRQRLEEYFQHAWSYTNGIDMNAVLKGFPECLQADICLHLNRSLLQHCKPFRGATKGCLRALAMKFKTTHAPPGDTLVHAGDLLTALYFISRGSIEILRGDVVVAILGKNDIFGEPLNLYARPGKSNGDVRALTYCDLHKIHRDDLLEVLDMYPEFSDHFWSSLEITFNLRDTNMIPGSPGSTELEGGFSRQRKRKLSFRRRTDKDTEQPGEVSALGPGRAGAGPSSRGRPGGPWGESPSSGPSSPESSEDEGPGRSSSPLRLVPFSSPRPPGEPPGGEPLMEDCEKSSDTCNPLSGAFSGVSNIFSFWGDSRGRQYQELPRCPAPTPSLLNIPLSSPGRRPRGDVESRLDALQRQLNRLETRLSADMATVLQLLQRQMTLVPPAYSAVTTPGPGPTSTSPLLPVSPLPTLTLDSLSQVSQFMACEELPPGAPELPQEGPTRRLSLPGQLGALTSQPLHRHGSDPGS

For the molecule `Cc1ccc(-c2ncc(OC[C@@H]3CCNC3)cc2-c2ccc(C#N)cc2)cc1`, in data set [1], the IC50 (commonly the concentration needed to halve the response being measured) worked out at 10 nM. The inhibition – broadly, the relative decrease from the control value, in per cent – at 10 µM in data set [2] was 90%. Further, in data set [3], the EC50 (as a rule, the concentration needed to bring the measured effect to its halfway point) was 62 nM.
`COc1ccc(-n2c(-c3ccc(C#N)c(F)c3)nc(C(=O)N3CCC[C@@H](N)C3)c2C)cc1F`: testing at 10 µM in data set [2] gave an inhibition of 30%.
For the molecule `CN[C@H]1CCN(C(=O)c2nc(-c3ccc(C#N)c(F)c3)n(-c3ccc4nn(C)c(Cl)c4c3)c2C)C1`, the “inhibition (INH)” value in data set [4] and in data set [5] was “Active” in each case. Also, the exposure AUC(0-t) (usually the area under the concentration-time curve up to a stated or last time point) at 6 h in data set [6] is 640 ng·h/mL. The inhibition at 10 µM in data set [2] came out at 24%.
In turn, `COc1ccc(-n2c(-c3ccc(C#N)c(F)c3)nc(C(=O)N3CCC[C@@H](N)C3)c2C)cc1` returned an inhibition at 10 µM in data set [2] of 69%.
As to `Cc1c(C(=O)N2CCC[C@@H](N)C2)nc(-c2ccc(C#N)c(F)c2)n1-c1ccc2c(cnn2C)c1`, in data set [6], the exposure AUC(0-t) at 6 h is 106 ng·h/mL. This molecule also yielded an inhibition at 10 µM in data set [2] of 52%.
For the molecule `COc1ccc(-n2c(-c3ccc(C#N)c(F)c3)nc(C(=O)N[C@@H]3CCCNC3)c2C)cc1F`, in data set [2], the inhibition at 10 µM is 65%.
As to `Cc1c(C(=O)N2CCC[C@@H](N)C2)nc(-c2ccc(C#N)c(F)c2)n1-c1ccc2nn(C)c(Cl)c2c1`, the “inhibition (INH)” value in data set [4] and in data set [5] was “Active” each time. This molecule also gave an exposure AUC(0-t) at 6 h in data set [6] of 100 ng·h/mL. Further, the inhibition at 10 µM in data set [2] came out at 28%.
For `Cc1c(C(=O)N2CC[C@H](N(C)C)C2)nc(-c2ccc(C#N)c(F)c2)n1-c1cc2cn(C)nc2cc1F`, the “inhibition (INH)” value in data set [4] and in data set [5] was “Active” each time. The molecule also returned an area under the curve AUC(0-t) at 6 h in data set [6] of 940 ng·h/mL. This molecule returned an inhibition at 10 µM in data set [2] of 44%.
For `COc1ccc(-n2c(-c3ccc(C#N)c(F)c3)nc(C(=O)N3CC[C@H](N)C3)c2C)cc1F`, the inhibition at 10 µM in data set [2] is 41%.
Take `Cc1c(C(=O)N2CC[C@H](N(C)C)C2)nc(-c2ccc(C#N)c(F)c2)n1-c1ccc2nn(C)cc2c1`: the “inhibition (INH)” value in data set [4] and in data set [5] was “Active” each time. In addition, the area under the curve AUC(0-t) at 6 h in data set [6] amounted to 760 ng·h/mL. The molecule further displayed an inhibition at 10 µM in data set [2] of 30%.
As to `CN[C@H]1CCN(C(=O)c2nc(-c3ccc(C#N)c(F)c3)n(-c3cc4cn(C)nc4cc3F)c2C)C1`, the “inhibition (INH)” value in data set [4] and in data set [5] was “Active” in each case. Further, the inhibition at 10 µM in data set [2] was found to be 22%.
For the molecule `Cc1c(C(=O)N2CC[C@H](N(C)C)C2)nc(-c2ccc(C#N)c(F)c2)n1-c1cc(F)c2nn(C)cc2c1`, the “inhibition (INH)” value in data set [4] and in data set [5] was “Active” each time. Also, the exposure AUC(0-t) at 6 h in data set [6] came out at 660 ng·h/mL. For the same molecule, in data set [2], testing at 10 µM gave an inhibition of 17%.
As for `CN[C@@H]1CCCN(C(=O)c2nc(-c3ccc(C#N)c(F)c3)n(-c3ccc4nn(C)c(Cl)c4c3)c2C)C1`, the “inhibition (INH)” value in data set [4] and in data set [5] was “Active” each time. In data set [6], the exposure AUC(0-t) at 6 h amounted to 410 ng·h/mL. Besides, the inhibition at 10 µM in data set [2] amounted to 34%.
For `Cc1c(C(=O)N2CCC[C@@H](N)C2)nc(-c2ccc(C#N)c(F)c2)n1-c1ccc2nn(C)cc2c1`, the AUC(0-t) at 6 h in data set [6] turned out to be 25 ng·h/mL. In addition, the inhibition at 10 µM in data set [2] is below 10%.
`Cc1c(C(=O)N2CC[C@H](N)C2)nc(-c2ccc(C#N)c(F)c2)n1-c1ccc2nn(C)cc2c1`: the “inhibition (INH)” value in data set [4] and in data set [5] was “Active” each time. For the same molecule, in data set [6], the exposure AUC(0-t) at 6 h worked out at 80 ng·h/mL. In data set [2], testing at 10 µM gave an inhibition of 12%.
Turning to `Cc1ccc(-n2c(-c3ccc(C#N)cc3)nc(C(=O)N3CCC[C@@H](N)C3)c2C)cc1`, at 10 µM the inhibition in data set [2] was 94%.
